Data from ChEMBL document CHEMBL4706724, “Novel Substituted Benzothiazole Compounds for Treating Huntington's Disease” (ACS Med Chem Lett, 2021).

Target: Huntingtin (Homo sapiens, UniProt P42858)
Assay: Inhibition of Huntingtin protein (unknown origin) incubated for overnight in presence of MW1/MAB2166 monoclonal antibody by ELISA-based MSD electrochemiluminescence assay

Huntingtin, sequence (P42858 whole entry): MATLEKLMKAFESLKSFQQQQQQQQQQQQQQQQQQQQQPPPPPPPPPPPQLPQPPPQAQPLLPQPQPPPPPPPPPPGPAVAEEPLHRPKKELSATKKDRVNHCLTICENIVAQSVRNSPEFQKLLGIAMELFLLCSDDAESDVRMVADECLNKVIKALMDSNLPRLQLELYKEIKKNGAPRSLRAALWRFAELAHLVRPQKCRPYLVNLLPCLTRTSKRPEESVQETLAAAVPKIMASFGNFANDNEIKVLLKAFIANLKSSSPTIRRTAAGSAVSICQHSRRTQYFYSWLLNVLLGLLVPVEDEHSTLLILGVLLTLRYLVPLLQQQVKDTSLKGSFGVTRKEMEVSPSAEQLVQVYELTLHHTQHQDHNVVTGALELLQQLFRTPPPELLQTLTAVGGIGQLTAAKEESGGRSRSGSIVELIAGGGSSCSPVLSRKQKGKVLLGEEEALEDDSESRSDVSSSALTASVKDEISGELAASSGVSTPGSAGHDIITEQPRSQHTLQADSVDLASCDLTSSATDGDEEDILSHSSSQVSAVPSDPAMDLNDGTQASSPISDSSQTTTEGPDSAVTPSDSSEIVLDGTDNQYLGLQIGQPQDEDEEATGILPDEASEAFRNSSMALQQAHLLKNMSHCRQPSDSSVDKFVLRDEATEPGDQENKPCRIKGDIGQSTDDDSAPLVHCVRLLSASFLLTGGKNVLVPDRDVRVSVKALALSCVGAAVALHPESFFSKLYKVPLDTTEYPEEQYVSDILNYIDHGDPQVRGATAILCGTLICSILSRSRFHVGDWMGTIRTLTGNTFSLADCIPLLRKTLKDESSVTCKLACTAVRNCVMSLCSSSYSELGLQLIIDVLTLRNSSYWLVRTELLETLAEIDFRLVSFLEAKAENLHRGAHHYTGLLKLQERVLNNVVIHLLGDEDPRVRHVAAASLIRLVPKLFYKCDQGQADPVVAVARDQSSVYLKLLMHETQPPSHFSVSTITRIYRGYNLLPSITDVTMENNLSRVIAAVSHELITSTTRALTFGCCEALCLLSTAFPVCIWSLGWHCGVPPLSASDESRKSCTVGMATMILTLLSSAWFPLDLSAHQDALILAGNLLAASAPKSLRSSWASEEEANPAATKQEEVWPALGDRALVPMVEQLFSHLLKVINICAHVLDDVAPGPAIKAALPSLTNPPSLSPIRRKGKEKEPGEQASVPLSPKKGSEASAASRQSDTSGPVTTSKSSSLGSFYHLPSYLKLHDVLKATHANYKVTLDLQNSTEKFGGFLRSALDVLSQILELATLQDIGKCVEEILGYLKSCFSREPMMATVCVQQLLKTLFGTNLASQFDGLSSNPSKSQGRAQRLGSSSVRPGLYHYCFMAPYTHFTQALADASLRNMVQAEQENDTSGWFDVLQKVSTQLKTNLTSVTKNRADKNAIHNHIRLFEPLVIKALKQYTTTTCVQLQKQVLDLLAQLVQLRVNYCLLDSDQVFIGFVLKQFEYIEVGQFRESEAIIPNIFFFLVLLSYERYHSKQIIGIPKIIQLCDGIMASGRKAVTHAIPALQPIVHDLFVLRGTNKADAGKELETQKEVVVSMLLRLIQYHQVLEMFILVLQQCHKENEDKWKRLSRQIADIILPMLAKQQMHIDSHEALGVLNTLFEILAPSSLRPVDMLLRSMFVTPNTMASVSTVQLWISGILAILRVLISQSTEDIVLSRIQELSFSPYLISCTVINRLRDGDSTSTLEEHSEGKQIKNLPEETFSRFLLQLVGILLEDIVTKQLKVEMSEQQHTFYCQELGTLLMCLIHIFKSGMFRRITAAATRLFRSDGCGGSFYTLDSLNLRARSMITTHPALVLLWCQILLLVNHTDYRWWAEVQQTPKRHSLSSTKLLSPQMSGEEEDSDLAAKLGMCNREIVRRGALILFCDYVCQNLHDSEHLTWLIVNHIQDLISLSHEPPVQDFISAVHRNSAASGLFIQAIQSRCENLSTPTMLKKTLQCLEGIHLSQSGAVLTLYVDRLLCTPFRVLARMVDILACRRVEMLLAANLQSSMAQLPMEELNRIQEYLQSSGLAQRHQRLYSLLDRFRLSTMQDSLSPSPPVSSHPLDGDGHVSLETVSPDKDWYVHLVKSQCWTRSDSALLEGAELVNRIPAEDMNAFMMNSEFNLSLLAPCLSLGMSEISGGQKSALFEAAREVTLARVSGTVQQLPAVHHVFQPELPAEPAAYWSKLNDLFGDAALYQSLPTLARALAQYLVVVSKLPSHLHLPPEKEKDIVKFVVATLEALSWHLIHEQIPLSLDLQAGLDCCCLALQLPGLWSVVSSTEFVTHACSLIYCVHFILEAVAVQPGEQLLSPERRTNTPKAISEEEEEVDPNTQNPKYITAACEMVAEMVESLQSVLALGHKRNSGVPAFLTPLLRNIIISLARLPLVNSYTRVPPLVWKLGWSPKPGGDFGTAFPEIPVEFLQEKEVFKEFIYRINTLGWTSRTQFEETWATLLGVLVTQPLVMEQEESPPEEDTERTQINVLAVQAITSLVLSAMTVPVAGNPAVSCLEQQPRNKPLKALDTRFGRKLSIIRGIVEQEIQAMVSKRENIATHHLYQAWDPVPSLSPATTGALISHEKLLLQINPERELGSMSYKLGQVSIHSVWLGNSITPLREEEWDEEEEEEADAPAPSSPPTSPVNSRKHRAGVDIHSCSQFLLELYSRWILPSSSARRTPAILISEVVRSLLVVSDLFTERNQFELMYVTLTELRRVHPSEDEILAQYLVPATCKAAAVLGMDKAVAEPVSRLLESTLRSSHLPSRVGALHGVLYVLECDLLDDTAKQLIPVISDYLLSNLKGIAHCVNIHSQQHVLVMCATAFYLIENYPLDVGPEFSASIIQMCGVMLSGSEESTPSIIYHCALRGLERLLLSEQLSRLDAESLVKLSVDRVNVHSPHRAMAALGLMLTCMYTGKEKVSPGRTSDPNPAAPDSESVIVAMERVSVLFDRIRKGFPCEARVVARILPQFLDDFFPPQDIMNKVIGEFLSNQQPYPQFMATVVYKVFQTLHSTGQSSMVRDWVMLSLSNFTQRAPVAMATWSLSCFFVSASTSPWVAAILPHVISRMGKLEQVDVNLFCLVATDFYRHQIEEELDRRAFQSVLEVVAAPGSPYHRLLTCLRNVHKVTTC

Oc1cc(-c2cn[nH]c2)ccc1-c1cc2sc(N3CCC34CCNCC4)nc2nn1
IC50: ≤ 0.1 µM

Cc1nc2ccc(-c3cc(F)c4nc(C5CCNCC5)sc4c3)cc2o1
IC50: ≤ 0.1 µM

CN1CC2(C1)CN(c1nc3nnc(-c4ccc(-c5c[nH]nc5F)cc4O)cc3s1)C2
IC50: ≤ 0.1 µM

CN(c1nc2nnc(-c3ccc(-c4c[nH]nc4F)cc3O)cc2s1)C1CCNC1 (stereo unspecified)
IC50: ≤ 0.1 µM

Cc1cn2nc(-c3cc(F)c4nc(OC5CCN(C)CC5)sc4c3)cc(C)c2n1
IC50: ≤ 0.1 µM

CN(c1nc2nnc(-c3ccc(-c4cn[nH]c4)cc3O)cc2s1)C1CCN(C2CC2)CC1
IC50: ≤ 0.1 µM
